Measured values from US6664039B1, “Methods and compositions for modulating neurodegeneration” (California Institute of Technology, priority 1998, dated 2003).
“Also recorded” adds a separate entry of the source.

Experiments:
bubblegum mutant flies [1] = assay: Brain (lamina) degeneration in bubblegum mutant flies by light and electron microscopy; type: in vivo, Drosophila; details: for degeneration: male mutant flies raised in oil-containing medium from first instar larvae, 15 day-old adults
Protocol: Tissue preparation for microscopy. Fly heads were prepared by fixation in 1% paraformaldehyde+1% glutaraldehyde, postfixation in 1% osmium tetroxide, dehydration in an ethanol series, and embedding in Epon 812. For light microscopy, […] were stained with 1% toludine blue 1% Borax. For electron microscopy, ultrathin sections (80 nm) were examined with a Philips 201 electron microscope at 60 kV.
(§1) To determine whether similar dietary treatment can reduce the level of C26 and/or prevent the pathology seen in bubblegum, 2.5% of GTO oil was added to the normal corn meal-yeast-agar medium. […] However, knowing that oil treatment in ALD was not able to prevent the progression of the disease once patients had shown neurological symptoms, we decided to treat mutant flies with the oil at pre-adult stages. First instar larvae were raised in the oil-containing medium until eclosion and the adult flies were then transferred into fresh medium, still containing the oil, changed every 3 days.

VLCFAs = assay: Assay of very long chain fatty acids by gas chromatography in bubblegum flies; type: in vivo, Drosophila; details: male mutant flies treated from larval stage, 15 days old, compared with parental strain
Protocol: Assay of very long chain fatty acids by gas chromatography. To determine whether bubblegum has an accumulation of VLCFAs, fatty acid analysis by gas chromatography was performed on 15 day old flies, comparing homozygous mutant flies with those of the parent strain from which bubblegum was derived.
Extracts of whole male or female flies were used for purification and methylation of fatty acids. Gas chromatography was performed with a HP-5MS column (30 m×0.25 mm, 0.25-μm film thickness) and mass spectrometry was used to analyze the fatty acid methyl esters. Identification and measurement of fatty acid concentrations were based on an oil reference standard (NHI-F) from Sigma Co. and the C15 added as an internal standard.
as §1

bubblegum mutant flies [2] = assay: Countercurrent phototaxis test; type: in vivo, Drosophila; details: 5 day old bubblegum raised with the oil from the larval stage
Text: Phototactic analysis. In ALD, visual loss is on of the clinical symptoms, and anatomical analysis has shown abnormalities of the optic nerve and degeneration of ganglion cell layer. Flies transformed with P-elements expressing eye pigment, as is the case for bubblegum, are phototactic. A countercurrent phototaxis test was used to examine the visual behavior of bubblegum. […] Therefore, the oil treatment can prevent the biochemical, structural, and physiological defects caused by the mutation.
Flies were placed in a countercurrent distribution apparatus and responses to light were analyzed. Each numbered tube represents the number of positive responses in a total of 5 trials. In control tests for the from-light response, neither group of flies moved away from light.

bubblegum mutant flies [3] = assay: Lifespan of bubblegum mutant flies; type: in vivo, Drosophila; details: male mutant flies treated with oil from larval stage
Protocol: Mutagenesis and screen. Drosophilia lines carrying P(lacZ, w+) were screened for mutations causing reduced lifespan at 29° C.
as §1

C26 = details: ALD, feeding GTO oil, within 4 months; cited from earlier work

## CCCCCCCC/C=C\CCCCCCCC(=O)OCC(COC(=O)CCCCCCC/C=C\CCCCCCCC)OC(=O)CCCCCCC/C=C\CCCCCCCC [GTO, glyceryl trioleate]
Bubblegum mutant flies [1]; adult mutant flies transferred to medium with 2.5% GTO oil, fed 15 days following emergence
  onset of brain degeneration: reduced only slightly
Bubblegum mutant flies [1]; homozygous females fed the oil
  age-dependent degeneration phenotype: similarly prevented
Bubblegum mutant flies [1]
  degeneration: largely prevented; also recorded: prevented the onset of degeneration
Bubblegum mutant flies [1]; listed as GTO oil
  degeneration: largely been prevented
VLCFAs
  levels of VLCFAs: becoming normal
VLCFAs; listed as GTO oil
  levels of VLCFAs: reduced to normal
Bubblegum mutant flies [2]
  phototactic response (response to the light): greatly enhanced response to the light
Bubblegum mutant flies [2]; listed as oil
  phototactic response (response to the light): showed a phototactic response
Bubblegum mutant flies [3]
  lifespan: recovered
C26
  reduction of the level of C26 in plasm: about 50%
